Several values for one entry are separate records, joined by “and”; a condition that tells them apart may be missing. Equal entries are not always repeated.
System: J774.2 mouse macrophages
Assay: LPS-induced cytokine and chemokine levels in J774.2 mouse macrophage cell supernatant (ELISA)
Type: cell-based
Details: for CXCL1 % reduction / CXCL1 [pg/mL] Mean / CXCL2 % reduction / CXCL2 [pg/mL] Mean / MMP9 % reduction / MMP9 [pg/mL] Mean / CXCL2 / MMP9: J774.2 cells; for CXCL1 % reduction / CXCL1 [pg/mL] Mean / CXCL2 % reduction / CXCL2 [pg/mL] Mean / MMP9 % reduction / MMP9 [pg/mL] Mean / CCl2, % reduction / CCl2, Mean / GM-CSF % reduction / GM-CSF Mean / IL-1β % reduction / IL-1β Mean / IL-6 % reduction / IL-6 Mean / TNF-α % reduction / TNF-α Mean / CCl2 / CXCL1 / GM-CSF / IL-1β / IL-6 / TNF-α / CXCL2 / MMP9: LPS; for CCl2, % reduction / CCl2, Mean / GM-CSF % reduction / GM-CSF Mean / IL-1β % reduction / IL-1β Mean / IL-6 % reduction / IL-6 Mean / TNF-α % reduction / TNF-α Mean / CCl2 / CXCL1 / GM-CSF / IL-1β / IL-6 / TNF-α: J774.2 supernatant; for CCl2 / CXCL1 / GM-CSF / IL-1β / IL-6 / TNF-α / CXCL2 / MMP9: individual replicate

## CC[C@H]1OC(=O)[C@H](C)[C@@H](O[C@H]2C[C@@](C)(OC)[C@@H](O)[C@H](C)O2)[C@H](C)[C@@H](O[C@@H]2O[C@H](C)C[C@H](N(C)C)[C@H]2O)[C@](C)(O)C[C@@H](C)CN(C)[C@H](C)[C@@H](O)[C@]1(C)O [Azithromycin]
Compound 0.03 µM
  CXCL1 % reduction: -14%
  CXCL1 [pg/mL] Mean: 29 pg/mL
  CXCL2 % reduction: 36%
  CXCL2 [pg/mL] Mean: 20828 pg/mL
  MMP9 % reduction: -31%
  MMP9 [pg/mL] Mean: 1243 pg/mL
  CXCL2: 14544.8 pg/mL and 27111.4 pg/mL
  MMP9: 1137.13 pg/mL and 1348.53 pg/mL
Compound 0.1 µM
  CXCL1 % reduction: -29%
  CXCL1 [pg/mL] Mean: 33 pg/mL
  CXCL2 % reduction: 38%
  CXCL2 [pg/mL] Mean: 20316 pg/mL
  MMP9 % reduction: -12%
  MMP9 [pg/mL] Mean: 1072 pg/mL
  CXCL2: 14262.2 pg/mL and 26368.8 pg/mL
  MMP9: 973.296 pg/mL and 1170.61 pg/mL
Compound 0.3 µM
  CXCL1 % reduction: -11%
  CXCL1 [pg/mL] Mean: 28 pg/mL
  CXCL2 % reduction: 29%
  CXCL2 [pg/mL] Mean: 23099 pg/mL
  MMP9 % reduction: -7%
  MMP9 [pg/mL] Mean: 1027 pg/mL
  CXCL2: 19194.7 pg/mL and 27003.7 pg/mL
  MMP9: 981.336 pg/mL and 1072.64 pg/mL
Compound 1 µM
  CXCL1 % reduction: -18%
  CXCL1 [pg/mL] Mean: 30 pg/mL
  CXCL2 % reduction: 13%
  CXCL2 [pg/mL] Mean: 28283 pg/mL
  MMP9 % reduction: -11%
  CXCL2: 28271.6 pg/mL and 28293.6 pg/mL
  MMP9: 1115.62 pg/mL and 1010.37 pg/mL
Compound 3 µM
  CXCL1 % reduction: -30%
  CXCL1 [pg/mL] Mean: 33 pg/mL
  CXCL2 % reduction: 51%
  CXCL2 [pg/mL] Mean: 15868 pg/mL
  MMP9 % reduction: -14%
  MMP9 [pg/mL] Mean: 1088 pg/mL
  CXCL2: 17053.3 pg/mL and 14683.3 pg/mL
  MMP9: 1120.5 pg/mL
Compound 10 µM
  CXCL1 % reduction: -51%
  CXCL1 [pg/mL] Mean: 39 pg/mL
  CXCL2 % reduction: 45%
  CXCL2 [pg/mL] Mean: 18014 pg/mL
  MMP9 % reduction: 11%
  MMP9 [pg/mL] Mean: 860 pg/mL
  CXCL2: 20008.2 pg/mL and 16019.2 pg/mL
  MMP9: 846.885 pg/mL and 873.775 pg/mL
Compound 30 µM
  CXCL1 % reduction: -135%
  CXCL1 [pg/mL] Mean: 60 pg/mL
  CXCL2 % reduction: 26%
  CXCL2 [pg/mL] Mean: 23980 pg/mL
  MMP9 % reduction: 47%
  MMP9 [pg/mL] Mean: 539 pg/mL
  CXCL2: 23084.4 pg/mL and 24875.0 pg/mL
  MMP9: 575.954 pg/mL and 501.629 pg/mL
Compound 100 µM
  CXCL1 % reduction: -128%
  CXCL1 [pg/mL] Mean: 58 pg/mL
  CXCL2 % reduction: 35%
  CXCL2 [pg/mL] Mean: 21270 pg/mL
  MMP9 % reduction: 70%
  MMP9 [pg/mL] Mean: 332 pg/mL
  CXCL2: 19137.4 pg/mL and 23402.0 pg/mL
  MMP9: 340.616 pg/mL and 323.365 pg/mL
J774.2 mouse macrophages, concentrations tested (0.03 to 10 μM shown)
  levels of the measured LPS-induced cytokines, chemokines, or MMP-9 in supernatants: little to no reduction
0.03 µM
  CCl2, % reduction: 18%
  CCl2, Mean: 29824 pg/mL
  GM-CSF % reduction: 64%
  GM-CSF Mean: 507 pg/mL
  IL-1β % reduction: -40%
  IL-1β Mean: 266 pg/mL
  IL-6 % reduction: 9%
  IL-6 Mean: 70233 pg/mL
  TNF-α % reduction: -11%
  TNF-α Mean: 1517 pg/mL
  CCl2: 28757.8 pg/mL and 30890.3 pg/mL
  CXCL1: 31.2 pg/mL and 27.2 pg/mL
  GM-CSF: 560.6 pg/mL and 452.6 pg/mL
  IL-1β: 258.52 pg/mL and 274.336 pg/mL
  IL-6: 75760 pg/mL and 64706 pg/mL
  TNF-α: 1559.1 pg/mL and 1475.0 pg/mL
0.1 µM
  CCl2, % reduction: 25%
  CCl2, Mean: 27461 pg/mL
  GM-CSF % reduction: 56%
  GM-CSF Mean: 616 pg/mL
  IL-1β % reduction: -16%
  IL-1β Mean: 222 pg/mL
  IL-6 % reduction: -5%
  IL-6 Mean: 81359 pg/mL
  TNF-α % reduction: -22%
  TNF-α Mean: 1665 pg/mL
  CCl2: 26336.9 pg/mL and 28584.6 pg/mL
  CXCL1: 32.4 pg/mL and 33.7 pg/mL
  GM-CSF: 657.0 pg/mL and 575.0 pg/mL
  IL-1β: 219.952 pg/mL and 223.825 pg/mL
  IL-6: 80523 pg/mL and 82194 pg/mL
  TNF-α: 1716.4 pg/mL and 1614.2 pg/mL
0.3 µM
  CCl2, % reduction: 20%
  CCl2, Mean: 29163 pg/mL
  GM-CSF % reduction: 72%
  GM-CSF Mean: 397 pg/mL
  IL-1β % reduction: 9%
  IL-1β Mean: 173 pg/mL
  IL-6 % reduction: 8%
  IL-6 Mean: 71113 pg/mL
  TNF-α % reduction: -8%
  TNF-α Mean: 1475 pg/mL
  CCl2: 28466.3 pg/mL and 29859.2 pg/mL
  CXCL1: 27.1 pg/mL and 29.7 pg/mL
  GM-CSF: 346.8 pg/mL and 446.6 pg/mL
  IL-1β: 173.433 pg/mL and 172.638 pg/mL
  IL-6: 72113 pg/mL and 70113 pg/mL
  TNF-α: 1462.3 pg/mL and 1488.2 pg/mL
1 µM
  CCl2, % reduction: 17%
  CCl2, Mean: 29990 pg/mL
  GM-CSF % reduction: 67%
  GM-CSF Mean: 467 pg/mL
  IL-1β % reduction: 4.32%
  IL-1β Mean: 183 pg/mL
  IL-6 % reduction: 10%
  IL-6 Mean: 69772 pg/mL
  TNF-α % reduction: -11%
  TNF-α Mean: 1515 pg/mL
  CCl2: 27895.3 pg/mL and 32084.6 pg/mL
  CXCL1: 29.3 pg/mL and 31.2 pg/mL
  GM-CSF: 431.5 pg/mL and 502.0 pg/mL
  IL-1β: 188.28 pg/mL and 176.943 pg/mL
  IL-6: 65142 pg/mL and 74401 pg/mL
  TNF-α: 1479.7 pg/mL and 1551.1 pg/mL
3 µM
  CCl2, % reduction: 4%
  CCl2, Mean: 34644 pg/mL
  GM-CSF % reduction: 57%
  GM-CSF Mean: 606 pg/mL
  IL-1β % reduction: -7%
  IL-1β Mean: 204 pg/mL
  IL-6 % reduction: 7%
  IL-6 Mean: 71996 pg/mL
  TNF-α % reduction: -31%
  TNF-α Mean: 1780 pg/mL
  CCl2: 38396.7 pg/mL and 30890.3 pg/mL
  CXCL1: 37.9 pg/mL and 28.5 pg/mL
  GM-CSF: 728.6 pg/mL and 484.1 pg/mL
  IL-1β: 204.824 pg/mL and 203.959 pg/mL
  IL-6: 78966 pg/mL and 65026 pg/mL
  TNF-α: 1995.5 pg/mL and 1564.5 pg/mL
10 µM
  CCl2, % reduction: 9%
  CCl2, Mean: 32971 pg/mL
  GM-CSF % reduction: 52%
  GM-CSF Mean: 674 pg/mL
  IL-1β % reduction: 1.15%
  IL-1β Mean: 189 pg/mL
  IL-6 % reduction: 15%
  IL-6 Mean: 65894 pg/mL
  TNF-α % reduction: -25%
  TNF-α Mean: 1709 pg/mL
  CCl2: 34921.6 pg/mL and 31021.1 pg/mL
  CXCL1: 42.9 pg/mL and 34.6 pg/mL
  GM-CSF: 752.0 pg/mL and 595.8 pg/mL
  IL-1β: 185.693 pg/mL and 191.532 pg/mL
  IL-6: 62169 pg/mL and 69619 pg/mL
  TNF-α: 1793.0 pg/mL and 1624.6 pg/mL
30 µM
  CCl2, % reduction: -14%
  CCl2, Mean: 40819 pg/mL
  GM-CSF % reduction: 66%
  GM-CSF Mean: 483 pg/mL
  IL-1β % reduction: 28%
  IL-1β Mean: 138 pg/mL
  IL-6 % reduction: 43%
  IL-6 Mean: 44169 pg/mL
  TNF-α % reduction: -15%
  TNF-α Mean: 1566 pg/mL
  CCl2: 40980.3 pg/mL and 40657.2 pg/mL
  CXCL1: 68.6 pg/mL and 51.5 pg/mL
  GM-CSF: 510.8 pg/mL and 455.1 pg/mL
  IL-1β: 129.379 pg/mL and 146.376 pg/mL
  IL-6: 40788 pg/mL and 47550 pg/mL
  TNF-α: 1637.1 pg/mL and 1494.0 pg/mL
100 µM
  CCl2, % reduction: 12%
  CCl2, Mean: 31879 pg/mL
  GM-CSF % reduction: 76%
  GM-CSF Mean: 343 pg/mL
  IL-1β % reduction: 36%
  IL-1β Mean: 122 pg/mL
  IL-6 % reduction: 69%
  IL-6 Mean: 24231 pg/mL
  TNF-α % reduction: -21%
  TNF-α Mean: 1656 pg/mL
  CCl2: 33824.3 pg/mL and 29933.1 pg/mL
  CXCL1: 66.2 pg/mL and 50.6 pg/mL
  GM-CSF: 399.7 pg/mL and 287.0 pg/mL
  IL-1β: 120.112 pg/mL and 124.217 pg/mL
  IL-6: 25573 pg/mL and 22888 pg/mL
  TNF-α: 1818.4 pg/mL and 1493.5 pg/mL

— PMC8480901 (PLoS ONE, 2021)
